The record followed here is ChEMBL document CHEMBL1201862, “PubChem BioAssay data set” (2004).

The source made the active and inactive calls.

The target of one assay is T1, Insulin-degrading enzyme (Homo sapiens, UniProt P14735).
T1 sequence (P14735 whole entry): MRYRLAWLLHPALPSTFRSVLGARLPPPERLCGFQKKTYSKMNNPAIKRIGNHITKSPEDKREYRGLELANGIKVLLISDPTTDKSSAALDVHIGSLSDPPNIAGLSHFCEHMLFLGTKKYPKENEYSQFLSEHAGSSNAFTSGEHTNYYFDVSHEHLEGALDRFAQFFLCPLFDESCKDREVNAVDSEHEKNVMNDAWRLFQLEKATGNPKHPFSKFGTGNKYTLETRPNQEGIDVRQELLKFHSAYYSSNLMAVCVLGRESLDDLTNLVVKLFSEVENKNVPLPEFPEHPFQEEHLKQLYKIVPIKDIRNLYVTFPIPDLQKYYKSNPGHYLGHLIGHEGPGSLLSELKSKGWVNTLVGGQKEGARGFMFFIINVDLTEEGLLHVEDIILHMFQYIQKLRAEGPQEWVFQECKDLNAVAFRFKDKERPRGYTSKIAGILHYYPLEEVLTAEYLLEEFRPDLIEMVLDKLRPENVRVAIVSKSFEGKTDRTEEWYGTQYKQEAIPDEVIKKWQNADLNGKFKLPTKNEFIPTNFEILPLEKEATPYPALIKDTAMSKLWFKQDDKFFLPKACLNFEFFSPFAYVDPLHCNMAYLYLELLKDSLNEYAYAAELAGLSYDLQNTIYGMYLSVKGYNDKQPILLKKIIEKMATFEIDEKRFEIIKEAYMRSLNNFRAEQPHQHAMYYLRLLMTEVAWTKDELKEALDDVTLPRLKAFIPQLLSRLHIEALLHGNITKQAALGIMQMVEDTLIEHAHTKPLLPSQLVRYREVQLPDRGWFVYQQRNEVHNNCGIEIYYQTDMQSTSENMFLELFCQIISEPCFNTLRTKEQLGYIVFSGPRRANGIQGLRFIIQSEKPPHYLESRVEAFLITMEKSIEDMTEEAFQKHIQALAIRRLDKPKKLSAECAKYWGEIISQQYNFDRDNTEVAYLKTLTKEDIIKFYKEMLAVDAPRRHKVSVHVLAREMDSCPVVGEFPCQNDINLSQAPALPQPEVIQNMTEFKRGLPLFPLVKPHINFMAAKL
Briefly: activators of endogenous IDE in HEK cells, dose response, cell-based, fluorescence polarization (AID 588439). In kind it is functional.

Assay [1] deals with Calcium/calmodulin-dependent protein kinase type II subunit delta (Homo sapiens, UniProt Q13557). It is filed as functional.
Chain of Calcium/calmodulin-dependent protein kinase type II subunit delta (Q13557 whole entry): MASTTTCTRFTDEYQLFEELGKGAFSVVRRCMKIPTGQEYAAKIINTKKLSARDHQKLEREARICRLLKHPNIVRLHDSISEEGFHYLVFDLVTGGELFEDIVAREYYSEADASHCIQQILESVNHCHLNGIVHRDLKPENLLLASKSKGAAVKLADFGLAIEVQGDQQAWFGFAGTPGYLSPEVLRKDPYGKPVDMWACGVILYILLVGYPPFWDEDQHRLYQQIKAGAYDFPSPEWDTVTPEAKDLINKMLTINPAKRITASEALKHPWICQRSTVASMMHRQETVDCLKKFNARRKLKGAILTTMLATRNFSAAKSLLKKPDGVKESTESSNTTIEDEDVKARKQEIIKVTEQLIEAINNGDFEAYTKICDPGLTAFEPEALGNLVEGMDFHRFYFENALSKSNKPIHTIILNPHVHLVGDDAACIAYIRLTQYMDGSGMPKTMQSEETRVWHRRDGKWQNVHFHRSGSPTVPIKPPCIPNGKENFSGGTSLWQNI

What is called EC50 is the concentration needed to bring the measured effect to its halfway point. For `OC(CNCCC1C=Nc2ccccc21)Cn1c2ccc(Cl)cc2c2cc(Cl)ccc21` (stereo not drawn), at Insulin-degrading enzyme, the EC50 was > 54.7 µM (inactive).

The term Ki denotes the equilibrium dissociation constant of an inhibitor or competing ligand from its target. What is called pKi is the Ki on a negative log10 scale, so that one unit is a factor of ten. Turning to `NC1CCC(Nc2nc(Cl)cc(-c3c[nH]c4ncccc34)n2)CC1` (stereo not drawn), in assay [1], the Ki was 0.251 µM (active) and the pKi was 6.6.
